Results taken from patent US5681823A, “P^1, P^4 -dithio-P^2 -P^3 -monochloromethylene 5', 5'"-diadenosine P^1, P^4 -tetraphosphate as antithrombotic agent” (PRP Inc., priority 1996, dated 1997).
pIC50, pKi: −log10 of the molar value. Where two headings read alike, the source gives them in different places.

Experiments:
Leukocytes = test: Distribution of ^125 I-labeled CHCl-AP4 A into blood cell fractions: leukocytes; format: binding, human
Description: (§1) There are, however, a variety of purinoceptors on other cell types. AP4 A analogues may bind not only to platelets but also to the erythrocytes and leukocytes when whole blood is treated with the agents. […] Platelets were separated by a gradual centrifugation, the packed red cells with buffy coats (leukocytes) were mixed, and fractionated by means of histopaque gradient separation (A. Boyum, Scand J. Clin. Lab. Invest. 21(suppl 97):77 (1968)). The cell fractions were washed twice and final suspensions were counted for cell number and the radioactivity. Percent distribution was calculated based on the CBC data of whole blood. Binding sites are expressed in the values per cells.

[1] = tested on: ADP-induced platelet aggregation; details: reference agent, kinetic study demonstrated previously (PNAS 1992); read-out: inhibition constant (Ki); cited from earlier work
Erythrocytes = test: Distribution of ^125 I-labeled CHCl-AP4 A into blood cell fractions: erythrocytes; format: binding, human
Description: as §1

Platelets = test: Distribution of ^125 I-labeled CHCl-AP4 A into blood cell fractions: platelets; format: binding, human
Description: as §1

[2] = tested on: ADP-induced platelet aggregation; details: Zamecnik '550 Table 3, read-out: ID50 (the source's name); cited from earlier work
[3] = tested on: ADP-induced platelet aggregation; thrombus formation; details: in words; cited from earlier work
[4] = tested on: ADP-induced platelet aggregability; test: Ability to aggregate of platelets exposed previously to the agents, resuspended in inhibitor-free plasma; format: cell-based, human; details: for activity at 25 µM: preincubated 25 μM agent
Description: (§2) Unless otherwise provided below, the experimental procedures were performed according to the procedures provided in U.S. Pat. No. 5,049.550 (Zamecnik '550), the entire contents of which are incorporated herein by reference. Some alternative procedures (e.g., release reaction, PF3 assays) and a number of additional studies also are provided (e.g., cytoplasmic calcium mobilization, fibrinogen binding site, agonists other than ADP, platelet cAMP and distribution of CHCl-AP4 A into blood components). Blood was collected in a 0.1 volume of 3.8% sodium citrate from healthy human volunteers who had abstained from antiplatelet agents for at least 10 days. Platelet rich plasma (PRP) was separated by a gradual centrifugation and adjusted to 3.3×10^8 platelets per ml plasma. PRP has been utilized in the Examples unless otherwise stated.
We believe that the inhibition mechanism of AP4 A analogues involves competing with ADP for binding to the platelet purinoceptor. To test the stability and inhibitory effects of the bound agent, platelet-rich plasma anticoagulated with ACD solution was preincubated with 25 μM thio-CHCl-AP4 A or 50 μM CHCl-AP4 A at 22° C. for 30 minutes. Platelets isolated by gel-column filtration (2×10^8 cells/ml) or centrifugation (3×10^8cells/ml) were resuspended in the inhibitor-free plasma and ADP-induced aggregability was measured. The values represent a mean of three experiments for the series of gel-filtration separation and a mean of two experiments for the centrifugation separation.

[5] = Distribution of ^125 I-labeled CHCl-AP4 A: plasma & washes; format: binding, human; details: 23 μM, 22° C., 30 minutes; mean of two
Description: as §1

[6] = tested on: ADP-induced platelet aggregation; test: Inhibition kinetic study, ADP-induced platelet aggregation; format: cell-based, human
Description: as §2
An initial screening was performed for inhibitory effects of several agents (including, e.g., thio-CHCl-AP4 A and CHCl-AP4 A as reference agent)) on platelet aggregation induced by ADP. Platelet aggregation was measured with platelet-rich plasma (PKP) by the turbidimetric method of Born (J. Physiol. 162:67, 1962) in an aggregometer (Chrono-log, Model 530 VS). Platelet aggregation induced by 5 μM ADP in the absence or presence of 5 μM agents was examined. […]

[7] = 23 μM, 22° C., 30 minutes, mean of two

Structure (SMILES): Nc1ncnc2c1ncn2[C@@H]1O[C@H](COP(=O)(O)OP(=O)(O)C(Cl)P(=O)(O)OP(=O)(O)OC[C@H]2O[C@@H](n3cnc4c(N)ncnc43)[C@H](O)[C@@H]2O)[C@@H](O)[C@H]1O (some centres unmarked) [CHCl-AP4 A]
- Distribution (%) (Leukocytes; [7]): 1.94%
- Binding Sites (Leukocytes; gross estimation per cell): 7.39 × 10^7 per cells
- binding sites per surface area, relative value (Leukocytes; relative, leukocytes): 1000
- pKi [1]: 5.96
- Distribution (%) (Erythrocytes; [7]): 2.09%
- Binding Sites (Erythrocytes; gross estimation per cell): 5.98 × 10^4 per cells
- binding sites per surface area, relative value (Erythrocytes; relative, erythrocytes): 1
- Distribution (%) (Platelets; [7]): 0.55%
- Binding Sites (Platelets; gross estimation per cell): 3.08 × 10^5 per cells
- binding sites per surface area, relative value (Platelets; relative, platelets): 100
- pIC50 [2]: 5.52
- effect on thrombus formation on administration to a mammal [3]: inhibit thrombus formation
- activity at 50 µM ([4]; Homo sapiens, Platelet, 0.5 h, centrifugation, 20 μM ADP, preincubated 50 μM agent, 22° C., 30 min, mean of two, read-out: Aggregability (% of control)): 92%
- inhibition in the ability to aggregate following exposure to ADP ([4]; preincubated 50 μM CHCl-AP4 A): 8%
- Distribution (%) [5]: 95.5%

Structure (SMILES): Nc1ncnc2c1ncn2[C@@H]1O[C@H](COP(O)(=S)OP(=O)(O)C(Cl)P(=O)(O)OP(O)(=S)OC[C@H]2O[C@@H](n3cnc4c(N)ncnc43)[C@H](O)[C@@H]2O)[C@@H](O)[C@H]1O (some centres unmarked) [Thio-CHCl-AP4 A, P^1, P^4 -dithio -P^2 -P^3 monochloromethylene 5', 5'" diadenosine P^1, P^4 -tetraphosphate]
- nature of inhibition [6]: competitive inhibition
- pKi ([6]; ADP-induced aggregation, read-out: inhibition constant (Ki)): 6.48
- activity at 25 µM ([4]; Homo sapiens, Platelet, 0.5 h, centrifugation, 20 μM ADP, 22° C., 30 min, mean of two, read-out: Aggregability (% of control)): 67%
- activity at 25 µM ([4]; Homo sapiens, Platelet, 0.5 h, gel-filtration, 10 μM ADP, 22° C., 30 min, mean of three, read-out: Aggregability (% of control)): 78%
- inhibition in the ability to aggregate following exposure to ADP ([4]; preincubated 25 μM thio-CHCl-AP4 A): 22-33%
